Laboratory results: patent US7105564B1, “Pharmaceutical composition comprising a dual antagonist against PGD2/TXA2 receptors having a [2.2.1] or [3.1.1] bicyclic skeleton” (Shionogi & Co., Ltd., priority 1999, dated 2006)
Read-outs that look alike come from different tables or passages of the source. Marks after values point to notes of the source that are not given here.

What was measured:
PGD2 receptor [1] = molecular target: T1, PGD2 receptor (Homo sapiens, UniProt Q13258); experiment: Binding activity to PGD2 receptor in human platelet membrane fraction ([3H]PGD2); set-up: The platelets were homogenized using a homogenizer (Ultra-Turrax) followed by centrifugation 3 times at 20,000 rpm; from tissue; host or cells: human platelet membrane fraction from blood of healthy volunteers
T1 sequence (Q13258 1-359): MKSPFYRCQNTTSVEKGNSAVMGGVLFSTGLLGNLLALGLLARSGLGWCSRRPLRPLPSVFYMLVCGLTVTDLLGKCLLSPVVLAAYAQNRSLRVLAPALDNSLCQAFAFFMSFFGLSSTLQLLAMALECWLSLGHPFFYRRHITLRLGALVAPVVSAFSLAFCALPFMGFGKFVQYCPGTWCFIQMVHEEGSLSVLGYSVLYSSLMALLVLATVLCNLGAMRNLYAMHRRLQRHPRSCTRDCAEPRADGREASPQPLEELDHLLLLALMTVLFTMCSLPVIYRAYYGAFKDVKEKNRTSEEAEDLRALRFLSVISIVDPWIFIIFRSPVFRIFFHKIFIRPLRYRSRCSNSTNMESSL
Description: Experiment 1 Binding activity to PGD2 Receptor
(§1) (1) Preparation of Human Platelet Membrane Fraction
Blood was collected using a plastic syringe containing 3.8% sodium citrate from the vein of healthy volunteers (adult male and female), then put into a plastic test tube and mixed by slow-reversion. The sample was then centrifuged at 1800 rpm, for 10 min at room temperature, and the supernatant containing PRP (platelet-rich plasma) was collected. The PRP was recentrifuged at 2300 rpm, for 22 min at room temperature to obtain platelets. The platelets were homogenized using a homogenizer (Ultra-Turrax) followed by centrifugation 3 times at 20,000 rpm, 10 min at 4° C.. to obtain a platelet membrane fraction. After protein determination, the membrane fraction was adjusted to 2 mg/ml and preserved in a refrigerator at −80° C.. until using for the binding test.
(2) Binding to PGD2 Receptor
To a binding-reaction solution (50 mM Tris/HCl, pH 7.4, 5 mM MgCl2) (0.2 ml) were added the human platelet membrane fraction (0.1 mg) and 5 nM [^3H]PGD2 (115 Ci/mmol), and the mixture was reacted at 4° C. for 90 min. After the reaction, the mixture was filtered through a glass fiber filter paper and washed several times with cooled physiological saline, then the radioactivity retained on the filter paper was measured. The specific-binding ratio was calculated by subtracting the non-specific binding ratio which is the radioactivity similarly measured in the presence of 10 μM PGD2 from the total binding.

PGD2 receptor [2] = molecular target: T1, PGD2 receptor; experiment: Antagonistic activity against PGD2 receptor using human platelet (inhibition of cAMP increase caused by PGD2); type: cell-based
Description: Experiment 3 Evaluation of Antagonistic Activity Against PGD2 Receptor Using Human Platelet
Peripheral blood was collected from a healthy volunteer using a syringe in which 1/9 volume of a citric acid/dextrose solution was previously added. The sample was subjected to centrifugation at 180 g for 10 min to obtain the supernatant (PRP: platelet rich plasma). The resultant PRP was washed 3 times with a washing buffer and the number of platelets was counted with a micro cell counter. A suspension adjusted to contain the platelets at a final concentration of 5×10^8/ml was warmed at 37° C., then subjected to the pre-treatment with 3-isobutyl-1-methylxanthine (0.5 mM) for 5 min. To the suspension was added a test compound diluted at various concentration, and 10 minutes later, 0.1 μM PGD2 was added to induce the reaction 2 minutes later, hydrochloric acid was added to terminate the reaction. The platelet was destroyed with an ultrasonic homogenizer. After centrifugation, the cAMP in the supernatant was determined by radioimmunoassay. PGD2 receptor antagonism of a drug was evaluated as follows: the inhibition rate regarding cAMP increased by the addition of PGD2 was determined at each concentration, and the concentration of the drug required for 50% inhibition (IC50) was calculated.

TXA2 receptor = molecular target: T2, TXA2 receptor (Homo sapiens, UniProt P21731); experiment: Binding activity to TXA2 receptor in human platelet membrane fraction ([3H](+)-S-145 sodium salt)
T2 construct: The human platelet membrane fraction was prepared in accordance with Experiment 1 (1); from tissue; host or cells: human platelet membrane fraction from blood of healthy volunteers
T2 sequence (P21731 1-343): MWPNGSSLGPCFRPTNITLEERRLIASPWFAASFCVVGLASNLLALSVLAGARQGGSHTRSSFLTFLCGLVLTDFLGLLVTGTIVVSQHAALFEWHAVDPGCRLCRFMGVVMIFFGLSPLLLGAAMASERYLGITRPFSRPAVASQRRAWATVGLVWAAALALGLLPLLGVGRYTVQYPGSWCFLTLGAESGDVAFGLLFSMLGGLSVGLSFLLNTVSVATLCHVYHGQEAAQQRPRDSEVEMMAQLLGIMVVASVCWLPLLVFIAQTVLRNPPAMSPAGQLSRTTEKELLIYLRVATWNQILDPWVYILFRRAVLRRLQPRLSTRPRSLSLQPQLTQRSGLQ
Description: Experiment 2 Binding activity to TXA2 Receptor
as §1
The human platelet membrane fraction was prepared in accordance with Experiment 1 (1).
(2) Binding to TXA2 Receptor
To a binding-reaction solution (50 mM Tris/HCl, pH 7.4, 10 mM MgCl2) (0.2 ml) were added the human platelet membrane fraction (0.05 mg) and 2 nM Sodium [^3H](+)-(5Z)-7- [3-endo- [(phenylsulfonyl)amino]bicyclo[2.2.1]hept-2-exo-yl]heptenoate (Japanese Patent Publication (Kokoku) No.79060/1993, hereinafter referred to as (+)—S—145 sodium salt) (26.4 Ci/mmol), and the mixture was reacted at room temperature for 90 min. After the reaction, the resultant mixture was filtered through a glass fiber filter paper and washed several times with cooled physiological saline, then the radioactivity retained on the filter paper was measured. The specific-binding ratio was calculated by subtracting the non-specific binding ratio (the radio activity similarly determined in the presence of 10 μM (+)—S—145 sodium salt) from the total binding.

Male Hartley guinea pigs [3] = experiment: Antigen-induced bronchial hyperresponsiveness; type: in vivo, guinea pig; conditions: acetylcholine dose for 200% increase in bronchoconstriction
Description: Antigen-induced bronchial hyperresponsiveness
Male Hartley guinea pigs were actively sensitized to ovalbumin (OVA) by inhalation of aerosolized solution of 1% ovalbumin twice at a week interval. One week after the second sensitization, the animals were treated with antihistamine, diphenhydramine (10 mg/kg, i.p.), and then challenged with 1% OVA aerosol for 5 min. Twenty four hours later, acetylcholine at doses at 3.13, 6. 25, 12.5, 25, 50 and 100 micro g/kg was sequentially injected into the animals which were anesthetized with pentobarbital (30 mg/kg, i.p.). The bronchoconstriction induced by each dose of acetylcholine was monitored by the modified method of Konzett-Rössler technique, and made a dose-response curve of acetylcholine. Using the dose-response curve, the dose required for 200% increase in bronchoconstriction from baseline (PD200) was calculated in each animal and used as an indication of bronchial responsiveness. Compounds were orally administered 1 hour before antigen challenge. **: P<0.01 vs Vehicle(Dunnett's test), ##: P<0.01 vs Vehicle(Student's t test).

Male Hartley guinea pigs [4] = experiment: Antigen-induced bronchoconstriction; type: in vivo, guinea pig
Description: Antigen-induced bronchoconstriction
Male Hartley guinea pigs were passively sensitized by intravenous injection of anti-OVA serum (antibody titer: 1: 3200), and 48 hours later, the animals were challenged by intravenous injection of OVA (70 micro g/kg). The bronchoconstriction induced by antigen was continuously monitored by means of modified method of Konzett-Rössler technique. The peak value of bronchoconstriction in each animal was used for evaluation of compounds. Compound (I-1b) and compound (B-2) were orally administered 1 hour before, compound (A) 2 hours before antigen challenge. The results are shown as follows. *: P<0.05 vs Vehicle, ##: P<0.01 vs Vehicle. ( ): inhibition %.

[5] = Comparative Experiment 1, read-out: Experiment 1 Antaginistic activity against PGD2 receptor IC50
[6] = Comparative Experiment 1, read-out: Experiment 3 Antaginistic activity against PGD2 receptor IC50
[7] = Comparative Experiment 1, read-out: Experiment 2 Antaginistic activity against TXA2 receptor IC50
[8] = 5 nM [3H]PGD2, 4° C., 90 min, read-out: Binding activity to PGD2 receptor in human platelet membrane fraction IC50
[9] = 0.1 μM PGD2, read-out: Inhibitory activity for the increase of cAMP caused by PGD2 in human platelet IC50
[10] = 1 mg/kg orally 1 hour before antigen challenge
[11] = 10 mg/kg orally 1 hour before antigen challenge
[12] = 2 nM [3H](+)-S-145 sodium salt, room temperature, 90 min, read-out: Binding activity to TXA2 receptor in human platelet membrane fraction IC50

Structure (SMILES)	IC50 (PGD2 receptor [1]; [8]) [nM]	IC50 (PGD2 receptor [2]; [9]) [nM]	IC50 (TXA2 receptor; [12]) [nM]	other results
CC1(C)[C@H]2C[C@H](C/C=C\CCCC(=O)O)[C@@H](NC(=O)c3csc4ccccc34)[C@@H]1C2 [Compound B-1, reference compound]	–	–	–	IC50 (PGD2 receptor [1]; [5]): 8.2 nM; IC50 (PGD2 receptor [2]; [6]): 41 nM; IC50 (TXA2 receptor; [7]): 3800 nM
O=C(O)CCC/C=C\C[C@H]1[C@@H]2CC[C@@H](C2)[C@@H]1NC(=O)c1ccc(S(=O)(=O)n2cccc2)s1 [Compound I-1b, (5Z)-7-{(1R,2S,3S,4S)-3-[5-(pyrrol-1-ylsulfonyl)-thiophen-2-ylcarbonylamino]-bicyclo[2.2.1]hept-2-yl}-5-heptenoic acid]	4.3	1.3	3	IC50 (PGD2 receptor [1]; [5]): 4.3 nM; IC50 (PGD2 receptor [2]; [6]): 1.3 nM; Log PD200 (Male Hartley guinea pigs [3]; [10]): 1.25 ± 0.05; Log PD200 (Male Hartley guinea pigs [3]; [11]): 1.52 ± 0.06**; Peak bronchoconstriction (Male Hartley guinea pigs [4]; [10]): 47.4 ± 11.4 cm H2O; Peak bronchoconstriction, inhibition % (Male Hartley guinea pigs [4]; [10]): 31%; Peak bronchoconstriction (Male Hartley guinea pigs [4]; [11]): 28.4 ± 12.9 cm H2O; Peak bronchoconstriction, inhibition % (Male Hartley guinea pigs [4]; [11]): 58%; IC50 (TXA2 receptor; [7]): 3 nM
O=C(O)CCCC=CCC1C2CCC(C2)C1NC(=O)c1ccc(S(=O)(=O)c2cccs2)s1 (stereo not drawn) [Compound I-47]	4.1	7	6.2	–
O=C(O)CCCC=CCC1C2CCC(C2)C1NC(=O)c1ccc(Sc2cccs2)s1 (stereo not drawn) [Compound I-59]	0.41	4.6	16	–
O=C(O)CCCC=CCC1C2CCC(C2)C1NC(=O)c1ccc(Sc2ccsc2)s1 (stereo not drawn) [Compound I-79]	0.42	24	15	–
O=C(O)CCCC=CCC1C2CCC(C2)C1NC(=O)c1ccc(S(=O)(=O)c2ccsc2)s1 (stereo not drawn) [Compound I-80]	6.6	39	5.2	–
Cc1ccc(S(=O)(=O)c2ccc(C(=O)NC3C4CCC(C4)C3CC=CCCCC(=O)O)s2)s1 (stereo not drawn) [Compound I-82]	32	53	1.8	–
O=C(O)CCCC=CCC1C2CCC(C2)C1NC(=O)c1ccc(Cc2ccsc2)s1 (stereo not drawn) [Compound I-88]	7.6	4.7	78	–
O=C(O)CCCC=CCC1C2CCC(C2)C1NC(=O)c1ccc(Cc2cccs2)s1 (stereo not drawn) [Compound I-93]	7	8.4	72	–
O=C(O)CCCC=CCC1C2CCC(C2)C1NC(=O)c1ccn(S(=O)(=O)c2cccs2)c1 (stereo not drawn) [Compound I-94]	1	10	83	–
O=C(O)CCCC=CCC1C2CCC(C2)C1NC(=O)c1ccc(CSc2cccs2)s1 (stereo not drawn) [Compound I-104]	0.1	1.6	39	–
O=C(O)CCCC=CCC1C2CCC(C2)C1NC(=O)c1ccc(SCc2cccs2)s1 (stereo not drawn) [Compound I-106]	13	9.3	13	–
Cc1ccc(Cc2ccc(C(=O)NC3C4CCC(C4)C3CC=CCCCC(=O)O)s2)s1 (stereo not drawn) [Compound I-129]	11	22	52	–
O=C(O)CCCC=CCC1C2CCC(C2)C1NC(=O)c1ccc(Cc2cc3ccccc3o2)s1 (stereo not drawn) [Compound I-136]	23	15	16	–
O=C(O)CCCC=CCC1C2CCC(C2)C1NC(=O)c1csc2c(Cc3cccs3)cccc12 (stereo not drawn) [Compound I-168]	0.46	29	34	–
O=C(O)CCCC=CCC1C2CCC(C2)C1NC(=O)c1csc2c(Cc3ccsc3)cccc12 (stereo not drawn) [Compound I-169]	0.61	26	32	–
O=C(O)CCCC=CCC1C2CCC(C2)C1NC(=O)c1ccc(Cc2csc3ccccc23)s1 (stereo not drawn) [Compound I-182]	61	11	28	–
CC1(C)C2CC(CC=CCCCC(=O)O)C(NC(=O)c3ccc(S(=O)(=O)n4cccc4)s3)C1C2 (stereo not drawn) [II-15]	2	11	12	–
CC1(C)C2CC(CC=CCCCC(=O)O)C(NC(=O)c3ccc(S(=O)(=O)c4cccs4)s3)C1C2 (stereo not drawn) [II-18]	0.96	4	3.6	–
CC1(C)C2CC(CC=CCCCC(=O)O)C(NC(=O)c3ccc(Sc4cccs4)s3)C1C2 (stereo not drawn) [II-21]	0.1	24	14	–
Cc1cc(S(=O)(=O)c2ccc(C(=O)NC3C(CC=CCCCC(=O)O)CC4CC3C4(C)C)s2)cs1 (stereo not drawn) [II-30]	72	45	4	–
Cc1cccn1S(=O)(=O)c1ccc(C(=O)NC2C(CC=CCCCC(=O)O)CC3CC2C3(C)C)s1 (stereo not drawn) [II-34]	1.5	3.9	4.4	–
